± gives the expanded uncertainty stated by the source.
Columns and labels:
[1] = refractive index (Na D-line) (dimensionless); conditions: 298.15 K; 101.33 kPa; Liquid; Standard Abbe refractometry
[2] = 298.15 K; 101.33 kPa; Liquid

Row | refractive index [1] | mass density [2] [kg/m3] | SMILES
1 | 1.3876 ± 0.0006 | 866.12 ± 0.67 | CC(=O)OCC(C)C [2-methylpropyl ethanoate]
2 | 1.4726 ± 0.0005 | 1258.5 ± 0.6 | OCC(O)CO [glycerol]

Row | SMILES | refractive index [1] | mass density [2] [kg/m3]
3 | CC(C)CO [2-methyl-1-propanol] | 1.3938 ± 0.0005 | 797.83 ± 0.48
